From US8263638B2, “Dosing regimens for ion channel modulating compounds” (priority 2004, dated 2012)

Key:
[1] = tested on: atrial fibrillation (AF duration 3 hr-7 days; 8-45 days); assay: Effect of age, gender and prior rate control medications on conversion of AF to SR (Example 4); assay type: in vivo, human; settings: for Number of Pts Converted to Sinus Rhythm / Pts (%) Converted to Sinus Rhythm: AF Duration 3 hr-7 days
Experimental: Patients (pts) were block randomized in a double-blind, controlled study in a 2:1 ratio to receive COMPOUND A or placebo, stratified by AF duration (3 hr-7 days; 8-45 days). COMPOUND A (3 mg/kg), or similar appearing placebo, were infused over 10-min, followed by a second infusion if AF was not terminated (2 mg/kg or placebo). The proportion of pts with AF duration 3 hr-7 days who had treatment-induced conversion to SR within 90 min was the primary endpoint. Logistic regression was used to examine the effect of age (<65 vs ≧65), gender, and a prior use of rate control medications (beta blockers, calcium antagonists, digoxin).

[2] = tested on: atrial fibrillation of 3 to 72 h duration; assay: Randomized, double-blind, step-dose, placebo-controlled study in acute atrial fibrillation (Example 2); assay type: in vivo, human
Experimental: This was a randomized, double-blind, step-dose, placebo-controlled, parallel group study on humans. Fifty-six patients with atrial fibrillation of 3 to 72 h duration were randomized to one of two COMPOUND A dose groups or to placebo. The two COMPOUND A groups were RSD-1 (0.5 mg/kg followed by 1.0 mg/kg) or RSD-2 (2.0 mg/kg followed by 3.0 mg/kg), doses given by intravenous infusion over 10 min. The primary endpoint was termination of atrial fibrillation during a 10-min infusion or the subsequent 30-min. Secondary endpoints included the number of patients in sinus rhythm at 0.5, 1 and 24 h post-infusion and time to conversion to sinus rhythm. […] COMPOUND A converted acute atrial fibrillation to sinus rhythm.
Patients in this study had to have a rhythm of sustained atrial fibrillation (AF) with a duration of 3 to 72 h at the time of randomization. Patients were randomized to one of three groups and in each group received up to two 10-min intravenous infusions, separated by 30 min. Infusions were placebo followed by placebo, 0.5 mg/kg followed by 1.0 mg/kg COMPOUND A, or 2.0 […] COMPOUND A. The second dose in each group was administered only if AF was present 30 min after completion of the first dose. Doses for patients weighing>113 kg were capped as if the patient weight was 113 kg.
A Holter rhythm strip continuously monitored ECG, vital signs (blood pressure and heart rate, BP and HR, respectively) and O2 saturation were recorded every 2 min from the start of infusion to 5 min after, as well as at 15, 30, 60, 120, 240, 360, and 480 min and at discharge and one-week follow-up. Twelve-lead ECGs were obtained before dosing and every minute during infusion to 5 min after, as well as at 15, 30, 60, 120, 240, 360, and 480 min and at discharge, 24 h and one-week follow-up, and at the time of arrhythmia termination or significant rhythm changes. Venous blood samples were drawn for COMPOUND A plasma concentrations at 0, 15, 30, 120, 240, 480 min discharge and at AF termination or significant adverse events.
Fifty-five patients were evaluated for efficacy. Data are presented as mean±SD, median with interquartile range (IQR), all tests were performed as two sided and 95% confidence interval (CI) were produced; p<0.05 was considered statistically significant unless stated otherwise. Analysis of the relationship between termination of AF and treatment was performed using a chi-square analysis. In cases of small cell frequencies, the Fisher's exact test was used. A Cochran-Armitage test statistic with table scores was used to test the ascending dose evaluation of efficacy.
The time to conversion from the start of the first infusion was analyzed by the Cox regression method of event time analysis and one-way ANOVA. Assessment of the significance of time point values and mean change from baseline to each follow-up reading of ECG intervals (QRS, QT, QTc), BP, and HR were made within dose groups using paired t tests, and comparisons among dose groups were made using a one-way ANOVA.

[3] = Plasma concentrations of COMPOUND A in electrophysiology study (Example 1); assay type: in vivo; settings: human, intravenous, T = 45 min
Experimental: Blood samples for COMPOUND A concentrations were drawn at 0, 10 and 45 minutes after the start of drug infusion, and at discharge the next day.

[4] = 30 days following drug administration
[5] = End infusion 1, 0.5 and 1.0 mg/kg
[6] = End infusion 1, 2.0 and 3.0 mg/kg
[7] = End infusion 2, 0.5 and 1.0 mg/kg
[8] = End infusion 2, 2.0 and 3.0 mg/kg

COc1ccc(CCO[C@@H]2CCCC[C@H]2N2CC[C@@H](O)C2)cc1OC.Cl [COMPOUND A, (1R,2R)-2-[(3R)-hydroxypyrrolidinyl]-1-(3,4-dimethoxyphenethoxy)cyclohexane monohydrochloride]
median time to conversion ([1]; 3 hr-7 day group (n=75)): 11 min
pts with serious adverse events (%) [1, 4]: 13%
pts with serious adverse events (number) [1, 4]: 29
Number of Pts Converted to Sinus Rhythm ([1]; Men): 53
Pts (%) Converted to Sinus Rhythm ([1]; Men): 52%
Number of Pts Converted to Sinus Rhythm ([1]; No Prior Rate Control Drugs): 19
Pts (%) Converted to Sinus Rhythm ([1]; No Prior Rate Control Drugs): 53%
Number of Pts Converted to Sinus Rhythm ([1]; Prior Rate Control Drugs): 56
Pts (%) Converted to Sinus Rhythm ([1]; Prior Rate Control Drugs): 51%
Number of Pts Converted to Sinus Rhythm ([1]; Women): 22
Pts (%) Converted to Sinus Rhythm ([1]; Women): 51%
Number of Pts Converted to Sinus Rhythm ([1]; age <65): 49
Pts (%) Converted to Sinus Rhythm ([1]; age <65): 56%
Number of Pts Converted to Sinus Rhythm ([1]; age ≧65): 26
Pts (%) Converted to Sinus Rhythm ([1]; age ≧65): 46%
drug-related Torsades de Pointes ([1]; in vivo): No cases
patients converted to SR ([1]; primary end-point group, AF 3 hr-7 days, 3 mg/kg then 2 mg/kg, within 90 min): 52%
net efficacy for conversion of recent onset AF ([2]; 61% to 5% (placebo)): 56%
median time for termination of AF from the start of the first infusion ([2]; COMPOUND A treatment groups (FIG. 1)): 11 min
HEART RATE [2, 5]: 104 ± 7 BPM
QRS [2, 5]: 86 ± 3 ms
QTc [2, 5]: 419 ± 6 ms
HEART RATE [2, 6]: 98 ± 5 BPM
QRS [2, 6]: 95 ± 3 ms
QTc [2, 6]: 449 ± 9 ms
HEART RATE [2, 7]: 107 ± 6 BPM
QRS [2, 7]: 90 ± 6 ms
QTc [2, 7]: 414 ± 11 ms
HEART RATE [2, 8]: 104 ± 6 BPM
QRS [2, 8]: 99 ± 5 ms
QTc [2, 8]: 447 ± 17 ms
cumulative AF termination within 30 min of infusion ([2]; RSD-1: 0.5 mg/kg followed by 1.0 mg/kg i.v.): 11%
patients in sinus rhythm (excluding those electrically cardioverted) at 24 h post infusion ([2]; RSD-1: 0.5 + 1.0 mg/kg): 56%
patients in sinus rhythm at 30 min post-infusion ([2]; RSD-1: 0.5 + 1.0 mg/kg): 11%
patients in sinus rhythm at 1 h post infusion ([2]; RSD-1: 0.5 + 1.0 mg/kg): 11%
median time to conversion to sinus rhythm from the start of the first infusion ([2]; RSD-1, five eventual responders): 166 min
patients reporting cardiac disorders (adverse events) ([2]; RSD-1 group): 22.2%
electrical cardioversion attempted within the study period (24 h) ([2]; RSD-1 treated): 50%
electrical cardioversion successful ([2]; RSD-1 treated): 100%
cumulative AF termination within 30 min of infusion ([2]; RSD-2: 2.0 mg/kg followed by 3.0 mg/kg i.v.): 61%
patients in sinus rhythm (excluding those electrically cardioverted) at 24 h post infusion ([2]; RSD-2: 2.0 + 3.0 mg/kg): 79%
patients in sinus rhythm at 30 min post-infusion ([2]; RSD-2: 2.0 + 3.0 mg/kg): 56%
patients in sinus rhythm at 1 h post infusion ([2]; RSD-2: 2.0 + 3.0 mg/kg): 53%
median time to conversion to sinus rhythm from the start of the first infusion ([2]; RSD-2, eleven responders): 14 min
mean heart rate ([2]; RSD-2 dose, T1=15 min (baseline mean 106)): 90 beats per min
median time to termination of AF after start of the first infusion ([2]; RSD-2 group): 11 min
patients reporting cardiac disorders (adverse events) ([2]; RSD-2 group): 16.7%
electrical cardioversion attempted within the study period (24 h) ([2]; RSD-2 treated): 22%
electrical cardioversion successful ([2]; RSD-2 treated): 100%
QT interval, first available ECG records after conversion to sinus rhythm ([2]; human, in vivo): 366 ± 28 ms
QTc interval, first available ECG records after conversion to sinus rhythm ([2]; human, in vivo): 427 ± 19 ms
drug related proarrhythmia ([2]; in vivo): no instances
effect on QTc or QRS intervals compared to placebo ([2]; infusion): did not significantly prolong
concentration at 45 min ([3]; Dose Level 1, 2 mg/kg): 1080 ± 279 ng/mL
concentration at 45 min ([3]; Dose Level 2, 4 mg/kg): 2170 ± 422 ng/mL
